Experimental data: patent publication US8623860B2, “Azetidine derivatives, pharmaceutical compositions and uses thereof” (Boehringer Ingelheim International GmbH, priority 2011, dated 2014)

target: human ACC2 (Homo sapiens (Human), UniProt O00763); experiment: ACC2 assay, spectrophotometric 384 well assay (NADH-linked, coupled lactate dehydrogenase/pyruvate kinase reaction); type: biochemical; conditions: hACC2 construct lacking the 128 N-terminal amino acids; 25° C., 340 nm, 15 minutes
Method: Spectrophotometric 384 Well Assay
Malonyl CoA formation by acetyl CoA carboxylases is stoichometrically linked to the consumption of ATP. ACC2 activity is measured in a NADH-linked kinetic method measuring ADP generated during the ACC reaction using a coupled lactate dehydrogenase/pyruvate kinase reaction.
For biological testing, a human ACC2 construct which lacks the 128 amino acids at the N-terminus for increased solubility (nt 385-6966 in Genbank entry AJ575592) is cloned. The protein is then expressed in insect cells using a baculoviral expression system. Protein purification is performed by anion exchange.
All compounds are dissolved in dimethyl sulfoxide (DMSO) to a concentration of 10 mM.
Assay reactions are then carried out in 384-well plates, with hACC2 in an appropriate dilution and at final assay concentrations (f.c.) of 100 mM Tris (pH 7.5), 10 mM trisodium citrate, 25 mM KHCC3, 10 mM MgCl2, 0.5 mg/ml BSA, 3.75 mM reduced L-glutathione, 15 U/ml lactate dehydrogenase, 0.5 mM phosphoenolpyruvate, 15 U/ml pyruvate kinase, compounds at different concentrations at final DMSO concentrations of 1%.
The enzymatic reaction is then started by addition of a mixture of NADH, acetyl Coenzyme A (both 200 μM f.c.) and ATP (500 uM f.c.). The decrease of the optical density (slope S) is then determined at 25° C. at a wavelength of 340 nm over 15 minutes in a spectrophotometric reader.
Each assay microtiter plate contains wells with vehicle instead of compound as controls for the non-inhibited enzyme (100% CTL; ‘HIGH’) and wells without acetyl-CoA as controls for non-specific NADH degradation (0% CTL; ‘LOW’).
The slope S is used for calculation of % CTL=(S(compound)−S(‘LOW’))/(S(‘HIGH’)−S(‘LOW’))*100. Compounds will give values between 100% CTL (no inhibition) and 0% CTL (complete inhibition).
For IC50 value determination, the sample slope in the presence of the test compound after subtraction of the low controls (S(compound)−S(‘LOW’)) are used.
An IC50 value is derived from the compound slopes at different dosages after subtraction of the low controls (S(compound)−S(‘LOW’)) by non-linear regression curve fitting (equation y=(A+((B−A)/(1+((C/x)^D))))).
In the following table the activity expressed as IC50 (μM) of compounds according to the invention is presented wherein the IC50 values are determined in the ACC2 assay as described hereinbefore. The term “Ex.” refers to the example numbers according to the following experimental section.

human ACC2, sequence (O00763 129-2458): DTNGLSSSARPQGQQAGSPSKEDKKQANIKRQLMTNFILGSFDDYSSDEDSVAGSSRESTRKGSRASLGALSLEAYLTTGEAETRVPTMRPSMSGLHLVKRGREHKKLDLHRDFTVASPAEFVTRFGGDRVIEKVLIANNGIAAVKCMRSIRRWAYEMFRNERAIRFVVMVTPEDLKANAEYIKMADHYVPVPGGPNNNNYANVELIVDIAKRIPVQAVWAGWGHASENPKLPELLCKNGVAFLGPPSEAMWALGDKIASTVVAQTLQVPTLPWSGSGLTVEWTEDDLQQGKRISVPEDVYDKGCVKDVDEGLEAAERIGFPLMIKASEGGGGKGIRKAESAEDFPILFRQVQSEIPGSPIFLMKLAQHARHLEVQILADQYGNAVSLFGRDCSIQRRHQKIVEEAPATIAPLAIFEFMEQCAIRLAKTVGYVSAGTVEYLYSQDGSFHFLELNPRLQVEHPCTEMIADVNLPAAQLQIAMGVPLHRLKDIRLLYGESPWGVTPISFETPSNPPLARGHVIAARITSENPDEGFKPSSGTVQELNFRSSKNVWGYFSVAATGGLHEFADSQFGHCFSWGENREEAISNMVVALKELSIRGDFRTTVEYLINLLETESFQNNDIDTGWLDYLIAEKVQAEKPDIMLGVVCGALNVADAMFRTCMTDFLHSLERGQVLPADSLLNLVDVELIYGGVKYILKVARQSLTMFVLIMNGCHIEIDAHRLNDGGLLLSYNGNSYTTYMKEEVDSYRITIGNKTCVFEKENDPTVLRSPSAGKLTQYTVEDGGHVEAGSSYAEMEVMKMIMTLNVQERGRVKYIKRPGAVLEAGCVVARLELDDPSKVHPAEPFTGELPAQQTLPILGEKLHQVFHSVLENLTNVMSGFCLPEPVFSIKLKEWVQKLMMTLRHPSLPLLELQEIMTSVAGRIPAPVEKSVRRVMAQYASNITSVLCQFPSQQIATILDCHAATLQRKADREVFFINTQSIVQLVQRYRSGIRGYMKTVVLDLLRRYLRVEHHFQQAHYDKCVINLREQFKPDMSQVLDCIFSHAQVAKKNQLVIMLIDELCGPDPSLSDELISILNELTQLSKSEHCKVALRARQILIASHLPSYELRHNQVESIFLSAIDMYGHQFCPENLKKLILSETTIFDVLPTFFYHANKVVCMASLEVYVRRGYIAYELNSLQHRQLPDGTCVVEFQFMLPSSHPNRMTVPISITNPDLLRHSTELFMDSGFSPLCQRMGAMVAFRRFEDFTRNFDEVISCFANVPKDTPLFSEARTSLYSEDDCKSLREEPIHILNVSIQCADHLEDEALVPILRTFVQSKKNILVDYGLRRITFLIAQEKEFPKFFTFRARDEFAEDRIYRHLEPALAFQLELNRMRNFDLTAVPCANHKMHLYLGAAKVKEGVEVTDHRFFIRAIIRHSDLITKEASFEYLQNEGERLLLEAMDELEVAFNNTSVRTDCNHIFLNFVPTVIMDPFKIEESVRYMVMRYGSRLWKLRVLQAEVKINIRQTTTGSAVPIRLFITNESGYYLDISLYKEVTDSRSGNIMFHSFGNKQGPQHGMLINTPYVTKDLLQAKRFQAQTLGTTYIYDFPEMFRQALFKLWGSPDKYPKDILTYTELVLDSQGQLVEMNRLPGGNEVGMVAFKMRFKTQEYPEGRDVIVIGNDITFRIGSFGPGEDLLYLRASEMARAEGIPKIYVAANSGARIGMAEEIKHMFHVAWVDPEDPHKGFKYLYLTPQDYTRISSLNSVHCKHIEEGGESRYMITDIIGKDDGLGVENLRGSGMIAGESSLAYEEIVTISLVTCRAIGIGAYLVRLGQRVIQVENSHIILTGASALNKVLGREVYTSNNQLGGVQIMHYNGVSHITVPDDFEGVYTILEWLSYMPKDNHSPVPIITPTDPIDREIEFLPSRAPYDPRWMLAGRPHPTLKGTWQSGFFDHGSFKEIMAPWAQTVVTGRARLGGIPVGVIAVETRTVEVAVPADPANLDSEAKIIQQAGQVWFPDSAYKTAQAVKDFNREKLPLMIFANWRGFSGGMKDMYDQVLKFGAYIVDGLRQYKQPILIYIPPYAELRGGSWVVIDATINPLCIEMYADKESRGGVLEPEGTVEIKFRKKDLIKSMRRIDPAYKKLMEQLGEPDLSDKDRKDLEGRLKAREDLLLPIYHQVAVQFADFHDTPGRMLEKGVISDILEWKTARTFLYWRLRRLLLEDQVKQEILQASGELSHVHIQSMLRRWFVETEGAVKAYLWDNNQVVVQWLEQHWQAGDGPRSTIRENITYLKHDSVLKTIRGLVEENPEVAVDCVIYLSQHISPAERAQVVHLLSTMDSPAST

Row | Structure (SMILES) | IC50
1 | Cc1ncc(C(=O)N[C@@H](C)c2ccc(C3CN(c4ccc(OCC5CC5)cc4)C3)cc2)s1 [Example 3.40] | 1310 nM
2 | CC(=O)NCCCC(=O)N[C@@H](C)c1ccc(C2CN(c3ccc(OCC4CC4)cc3)C2)cc1 [Example 3.41] | 2070 nM
3 | CCC(=O)N[C@@H](C)c1ccc(C2CN(c3ccc(OCC4CC4)cc3)C2)cc1 [Example 3.42] | 940 nM
4 | Cc1ccc(C(=O)N[C@@H](C)c2ccc(C3CN(c4ccc(OCC5CC5)cc4)C3)cc2)o1 [Example 3.43] | 2570 nM
5 | C[C@H](NC(=O)c1cnco1)c1ccc(C2CN(c3ccc4c(c3)OCCO4)C2)cc1 [Example 3.44] | 1130 nM
6 | C[C@H](NC(=O)C(C)(C)F)c1ccc(C2CN(c3ccc(OCC4CC4)cc3)C2)cc1 [Example 3.46] | 1150 nM
7 | CC(C(=O)N[C@@H](C)c1ccc(C2CN(c3ccc(OCC4CC4)cc3)C2)cc1)C(F)(F)F (stereo partly shown) [Example 3.47] | 2700 nM
8 | C[C@H](NC(=O)Cc1cncnc1)c1ccc(C2CN(c3ccc(OCC4CC4)cc3)C2)cc1 [Example 3.48] | 1100 nM
9 | CC(=O)Nc1ncc(C(=O)N[C@@H](C)c2ccc(C3CN(c4ccc(OCC5CC5)cc4)C3)cc2)s1 [Example 3.49] | 1690 nM
10 | COCC(=O)N[C@@H](C)c1ccc(C2CN(c3ccc(OCC4CC4)cc3)C2)cc1 [Example 3.50] | 2170 nM
11 | CC(=O)Nc1cncc(C(=O)N[C@@H](C)c2ccc(C3CN(c4ccc(OCC5CC5)cc4)C3)cc2)c1 [Example 3.51] | 2180 nM
12 | C[C@H](NC(=O)c1cnco1)c1ccc(C2CN(c3ccc(OCC4CC4)cc3)C2)cc1 [Example 3.52] | 710 nM
13 | C#CCCC(=O)N[C@@H](C)c1ccc(C2CN(c3ccc(OCC4CC4)cc3)C2)cc1 [Example 3.53] | 2380 nM
14 | CC(=O)Nc1nc(C(=O)N[C@@H](C)c2ccc(C3CN(c4ccc(OCC5CC5)cc4)C3)cc2)co1 [Example 3.54] | 2360 nM
15 | CC(F)C(=O)N[C@@H](C)c1ccc(C2CN(c3ccc(OCC4CC4)cc3)C2)cc1 (stereo partly shown) [Example 3.55] | 1330 nM
16 | C[C@H](NC(=O)C1CC1)c1ccc(C2CN(c3ccc(OCC4CC4)cc3)C2)cc1 [Example 3.56] | 700 nM
17 | C[C@H](NC(=O)c1cncs1)c1ccc(C2CN(c3ccc4c(c3)OCCO4)C2)cc1 [Example 3.57] | 1650 nM
18 | C[C@H](NC(=O)c1ccnnc1)c1ccc(C2CN(c3ccc(OCC4CC4)cc3)C2)cc1 [Example 3.58] | 3010 nM
19 | CC(=O)Nc1cc(C(=O)N[C@@H](C)c2ccc(C3CN(c4ccc(OCC5CC5)cc4)C3)cc2)ccn1 [Example 3.59] | 780 nM
20 | Cc1cc(CC(=O)N[C@@H](C)c2ccc(C3CN(c4ccc(OCC5CC5)cc4)C3)cc2)on1 [Example 3.60] | 1170 nM
21 | CC(F)C(=O)N[C@@H](C)c1ccc(C2CN(c3ccc4c(c3)OCCO4)C2)cc1 (stereo partly shown) [Example 3.61] | 2520 nM

Row | Structure (SMILES) | IC50
22 | CC(Cc1ccc(C2CN(c3ccc(OCC4CC4)cc3)C2)cc1)NC(=O)C1CCC1 (stereo not shown) [Example 3.62] | 2910 nM
23 | CC(Cc1ccc(C2CN(c3ccc(OCC4CC4)cc3)C2)cc1)NC(=O)C1(C)CC1 (stereo not shown) [Example 3.63] | 1220 nM
24 | C[C@H](NC(=O)C1CC1)c1ccc(C2CN(c3ccc4c(c3)OCCO4)C2)cc1 [Example 3.64] | 2460 nM
25 | Cc1nocc1C(=O)N[C@@H](C)c1ccc(C2CN(c3ccc4c(c3)OCCO4)C2)cc1 [Example 3.65] | 1180 nM
26 | C=CCC(=O)N[C@@H](C)c1ccc(C2CN(c3ccc4c(c3)OCCO4)C2)cc1 [Example 3.66] | 970 nM
27 | CC(=O)NCCCC(=O)NC(C)Cc1ccc(C2CN(c3ccc(OCC4CC4)cc3)C2)cc1 (stereo not shown) [Example 3.67] | 1680 nM
28 | CCC(=O)N[C@@H](C)c1ccc(C2CN(c3ccc4c(c3)OCCO4)C2)cc1 [Example 3.68] | 1000 nM
29 | CC(=O)Nc1cc(C(=O)N[C@@H](C)c2ccc(C3CN(c4ccc5c(c4)OCCO5)C3)cc2)ccn1 [Example 3.69] | 2400 nM
30 | C[C@H](NC(=O)C(F)F)c1ccc(C2CN(c3ccc4c(c3)OCCO4)C2)cc1 [Example 3.70] | 1020 nM
31 | C[C@H](NC(=O)c1cnn(C)c1)c1ccc(C2CN(c3ccc4c(c3)OCCO4)C2)cc1 [Example 3.71] | 1690 nM
32 | CC(=O)Nc1nc(C)c(C(=O)N[C@@H](C)c2ccc(C3CN(c4ccc5c(c4)OCCO5)C3)cc2)s1 [Example 3.72] | 1970 nM
33 | C[C@H](NC(=O)c1ccon1)c1ccc(C2CN(c3ccc4c(c3)OCCO4)C2)cc1 [Example 3.73] | 2490 nM
34 | Cc1oncc1C(=O)NC(C)Cc1ccc(C2CN(c3ccc(OCC4CC4)cc3)C2)cc1 (stereo not shown) [Example 3.74] | 960 nM
35 | C[C@H](NC(=O)C(C)(C)O)c1ccc(C2CN(c3ccc(OCC4CC4)cc3)C2)cc1 [Example 3.75] | 3080 nM
36 | Cc1oncc1C(=O)NC(C)Cc1ccc(C2CN(c3ccc4c(c3)OCCO4)C2)cc1 (stereo not shown) [Example 3.76] | 2820 nM
37 | CC(Cc1ccc(C2CN(c3ccc(OCC4CC4)cc3)C2)cc1)NC(=O)c1ccon1 (stereo not shown) [Example 3.77] | 1700 nM
38 | C[C@H](NC(=O)CC#N)c1ccc(C2CN(c3ccc(OCC4CC4)cc3)C2)cc1 [Example 3.78] | 1220 nM
39 | CCOC(=O)C1(F)CC1C(=O)NC(C)Cc1ccc(C2CN(c3ccc(OCC4CC4)cc3)C2)cc1 (stereo not shown) [Example 3.79] | 2300 nM
40 | C[C@H](NC(=O)CCO)c1ccc(C2CN(c3ccc(OCC4CC4)cc3)C2)cc1 [Example 3.80] | 2440 nM
41 | C[C@H](NC(=O)c1ccon1)c1ccc(C2CN(c3ccc(OCC4CC4)cc3)C2)cc1 [Example 3.81] | 1400 nM
42 | C[C@H](NC(=O)CO)c1ccc(C2CN(c3ccc(OCC4CC4)cc3)C2)cc1 [Example 3.82] | 1620 nM

Row | Structure (SMILES) | IC50
43 | CCC(=O)NC(C)Cc1ccc(C2CN(c3ccc4c(c3)OCCO4)C2)cc1 (stereo not shown) [Example 3.83] | 3130 nM
44 | CC(Cc1ccc(C2CN(c3ccc4c(c3)OCCO4)C2)cc1)NC(=O)C(F)F (stereo not shown) [Example 3.84] | 3600 nM
45 | C[C@H](NC(=O)C(F)F)c1ccc(C2CN(c3ccc(OCC4CC4)cc3)C2)cc1 [Example 3.85] | 360 nM
46 | C[C@H](NC(=O)c1cncs1)c1ccc(C2CN(c3ccc(OCC4CC4)cc3)C2)cc1 [Example 3.86] | 450 nM
47 | Cc1nocc1C(=O)N[C@@H](C)c1ccc(C2CN(c3ccc(OCC4CC4)cc3)C2)cc1 [Example 3.87] | 470 nM
48 | C[C@H](NC(=O)C(C)(F)F)c1ccc(C2CN(c3ccc(OCC4CC4)cc3)C2)cc1 [Example 3.88] | 530 nM
49 | C[C@H](NC(=O)CF)c1ccc(C2CN(c3ccc(OCC4CC4)cc3)C2)cc1 [Example 3.89] | 550 nM
50 | C[C@H](NC(=O)c1cnn(C)c1)c1ccc(C2CN(c3ccc(OCC4CC4)cc3)C2)cc1 [Example 3.90] | 620 nM
51 | C=CCC(=O)N[C@@H](C)c1ccc(C2CN(c3ccc(OCC4CC4)cc3)C2)cc1 [Example 3.91] | 630 nM
52 | CC(=O)N[C@@H](C)c1ccc(C2CN(c3ccnc(N(C)CC(F)F)n3)C2)cc1 [Example 4.1, (S)—N-(1-(4-(1-(2-((2,2-difluoroethyl)(methyl)amino)pyrimidin-4-yl)azetidin-3-yl)phenyl)ethyl)acetamide] | 1820 nM
53 | CC(=O)N[C@@H](C)c1ccc(C2CN(c3nc(N(C)CC(F)F)ncc3F)C2)cc1 [Example 4.2] | 1010 nM
54 | CC(=O)N[C@@H](C)c1ccc(C2CN(c3nc(N(C)C)ncc3F)C2)cc1 [Example 4.3] | 1510 nM
55 | CC(=O)N[C@@H](C)c1ccc(C2CN(c3ccnc(OCC4CC4(F)F)c3F)C2)cc1 (stereo partly drawn) [Example 5.1, N-((1S)-1-(4-(1-(2-((2,2-difluorocyclopropyl)methoxy)-3-fluoropyridin-4-yl)azetidin-3-yl)phenyl)ethyl)acetamide] | 1450 nM
56 | CC(=O)N[C@@H](C)c1ccc(C2CN(c3ccnc(OCC(F)F)c3)C2)cc1 [Example 5.2] | 1220 nM
57 | CC(=O)N[C@@H](C)c1ccc(C2CN(c3ccnc(OCC4CC4)c3)C2)cc1 [Example 5.3] | 1590 nM
58 | CCCOc1ncnc(N2CC(c3ccc([C@H](C)NC(C)=O)cc3)C2)c1Cl [Example 5.4] | 680 nM
59 | CC(=O)N[C@@H](C)c1ccc(C2CN(c3ncnc(OCC4CC4)c3Cl)C2)cc1 [Example 5.5] | 380 nM
60 | CC(=O)N[C@@H](C)c1ccc(C2CN(c3ncnc(OCC4CC4(F)F)c3F)C2)cc1 (stereo partly shown) [Example 5.6] | 540 nM
61 | CC(=O)N[C@@H](C)c1ccc(C2CN(c3ncnc(OCC4CC4)c3F)C2)cc1 [Example 5.7] | 400 nM
